IC50 data for 27 compounds are collected here from US10323000B2, “Indole derivatives and their use in neurodegenerative diseases” (priority 2014, dated 2019).

In experiment [1] the target is P2X7 (IL-1β release from THP-1 cells) (Homo sapiens (Human), UniProt Q99572). Briefly: IL-1β release assay. The format is cell-based. The protocol: IL-1β release assay: The activation of P2X7 by ATP leads to a fast transient activation of cells resulting in influx of Ca^2+ followed by conversion of pro-IL-1β to active IL-1β. The functional activity of P2X7 compounds was measured by the release of mature […] in the culture medium of THP-1 cells, detected by sandwich ELISA. […] THP-1 cells were harvested from the flask in 50 ml by centrifugation for 3 min at 100 g. The cells were resuspended to 2×10^5 cells/ml in medium supplemented with 0.5 μM PMA and incubated. The cells were washed and resuspended to 1.5×10^5 cells/ml in medium complemented with 10 ng/ml LPS, and the cells were primed for 4 h at 37° C., 5% CO2. After addition of 20 μL of prediluted test compounds, blank, standard and control reagents, cells were incubated for a further 20 min at 37° C. and stimulated with 0.8 mM BzATP for 30 minutes. The cells were centrifuged, supernatant was collected and the presence of mature IL-1β was detected using Dual human IL-1b kit following manufacturer's instruction. The tetrahydrobenzodiazepine analogs effectively modulated the activity of P2X7 in the cells as measured by the levels of pro-inflammatory cytokine IL-1β, which is released by the activation of P2X7 receptor.
Chain of P2X7 (IL-1β release from THP-1 cells) (Q99572 whole entry): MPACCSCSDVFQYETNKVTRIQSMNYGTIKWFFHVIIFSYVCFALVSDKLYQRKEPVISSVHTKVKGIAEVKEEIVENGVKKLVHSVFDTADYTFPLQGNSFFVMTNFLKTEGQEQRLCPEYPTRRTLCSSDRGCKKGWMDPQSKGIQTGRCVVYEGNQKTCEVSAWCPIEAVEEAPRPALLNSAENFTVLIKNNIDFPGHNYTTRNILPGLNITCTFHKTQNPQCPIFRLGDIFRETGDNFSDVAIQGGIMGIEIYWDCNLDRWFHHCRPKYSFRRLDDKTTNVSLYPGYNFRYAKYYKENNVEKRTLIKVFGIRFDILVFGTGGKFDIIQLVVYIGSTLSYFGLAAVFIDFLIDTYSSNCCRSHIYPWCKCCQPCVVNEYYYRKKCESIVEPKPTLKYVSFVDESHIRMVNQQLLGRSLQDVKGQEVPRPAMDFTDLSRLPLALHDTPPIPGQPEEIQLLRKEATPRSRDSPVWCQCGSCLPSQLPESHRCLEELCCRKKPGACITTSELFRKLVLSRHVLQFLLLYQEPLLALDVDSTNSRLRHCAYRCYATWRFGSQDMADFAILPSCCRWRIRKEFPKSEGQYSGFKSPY

Experiment [2] addresses human P2X7 receptor (Homo sapiens (Human), UniProt Q99572). Briefly: Pore permeation assay (YO PRO dye uptake). The experiment is classed as cell-based. On the procedure: Agonist-induced pore formation was determined by measuring cellular uptake of YO PRO fluorescence dye in HEK293 transfected with human P2X7 receptor. A HEK293 cell over expressing human P2X7 was harvested using HQTase reagent to detach the cells from T75 cm flask. The harvested cells are centrifuged @1200 rpm for 5 min at room temperature. The viability of cells was determined by Trypan blue dye and the cells are plated @10,000 cell/well in 50 ul volume in a 384W BD Poly lysine coated plate and incubated overnight at 37 C. […] The plate was centrifuged at 1000 rpm for 5 seconds and incubated at room temperature for 30 minutes. The uptake of YO PRO dye into the cells was measured using Envision Fluorescence plate reader instrument (Perkin Elmer).

Setting [3] is: HEK293 transfected with human P2X7, BzATP 10 uM, YO PRO dye uptake, read-out: hP2X7 IC50.

Molecules are shown by their SMILES. Read-outs that look alike come from different tables or passages of the source.

Chain of human P2X7 receptor (Q99572 whole entry): as above

Consider `O=C(NCC1CCC(F)(F)CC1)c1cn(C[C@H]2CCCN2)c2cccc(Cl)c12` [Compound 154, (R)-4-chloro-N-((4,4-difluorocyclohexyl)methyl)-1-(pyrrolidin-2-ylmethyl)-1H-indole-3-carboxamide], for which the IC50 in experiment [1] and in experiment [2] was 10 to 100 nM each time.
Take `O=C(NCC1CCCC(F)(F)C1)c1cn(CCC(F)F)c2cccc(Cl)c12` (centres unmarked) [Compound 9, 4-Chloro-1-(3,3-difluoro-propyl)-1H-indole-3-carboxylic acid (3,3-difluoro-cyclohexylmethyl)-amide]: the values for the IC50 in experiment [1] and in experiment [2] (setting [3]) were 101 to 500 nM and under 10 nM, respectively.
Regarding `CC1(Cn2cc(C(=O)NCC3CCC(F)(F)CC3)c3c(Cl)cccc32)CCN1` (centres unmarked) [Compound 152, 4-chloro-N-((4,4-difluorocyclohexyl)methyl)-1-((2-methylazetidin-2-yl)methyl)-1H-indole-3-carboxamide], the IC50 in experiment [1] was in the range of 500 to 999 nM; in experiment [2], 10 to 100 nM.
In the case of `O=C(NCC1CCC(F)(F)CC1)c1cn(CC2CCOC2)c2cccc(Cl)c12` (centres unmarked) [Compound 148, 4-chloro-N-((4,4-difluorocyclohexyl)methyl)-1-((tetrahydrofuran-3-yl)methyl)-1H-indole-3-carboxamide], the IC50 in experiment [1] and in experiment [2] was 10 to 100 nM throughout.
`C[C@H]1CCC[C@@](O)(CNC(=O)c2cn(CCC(F)F)c3cccc(Cl)c23)C1` [Compound 7]: the results for the IC50 in experiment [1] and in experiment [2] (setting [3]) were 10 to 100 nM and under 10 nM, respectively.
As for `CC1CC(F)(F)CC(O)(CNC(=O)c2cn(C3COC3)c3cccc(Cl)c23)C1` (centres unmarked) [Compound 89, 4-chloro-N-((3,3-difluoro-1-hydroxy-5-methylcyclohexyl)methyl)-1-(oxetan-3-yl)-1H-indole-3-carboxamide], the IC50 was in the range of 500 to 999 nM in experiment [1] and 101 to 500 nM in experiment [2].
On to `C[C@H]1CCC[C@@](O)(CNC(=O)c2cn(CC(F)(F)F)c3cccc(Cl)c23)C1` [Compound 2, 4-chloro-N-(((1S,3S)-1-hydroxy-3-methylcyclohexyl)methyl)-1-(2,2,2-trifluoroethyl)-1H-indole-3-carboxamide], for which the IC50 in experiment [1] and in experiment [2] was 10 to 100 nM in each case.
Consider `O=C(NC[C@]1(O)CCCC(F)(F)C1)c1cn(CCN2CCCC2)c2cccc(Cl)c12` [Compound 177, (S)-4-chloro-N-((3,3-difluoro-1-hydroxycyclohexyl)methyl)-1-(2-(pyrrolidin-1-yl)ethyl)-1H-indole-3-carboxamide], for which the IC50 in experiment [1] and in experiment [2] was 101 to 500 nM throughout.
For the compound `C[C@@H]1CCC[C@](O)(CNC(=O)c2cn(CC(F)(F)F)c3cccc(Cl)c23)C1` [Compound 3, 4-chloro-N-(((1R,3R)-1-hydroxy-3-methylcyclo-hexyl)methyl)-1-(2,2,2-trifluoroethyl)-1H-indole-3-carboxamide], the values for the IC50 in experiment [1] and in experiment [2] were 101 to 500 nM and 10 to 100 nM, respectively.
For `CN1CC(n2cc(C(=O)NCC3CCC(F)(F)CC3)c3c(Cl)cccc32)C1` [Compound 119, 4-chloro-N-((4,4-difluorocyclohexyl)methyl)-1-(1-methylazetidin-3-yl)-1H-indole-3-carboxamide], in that order: 101 to 500 nM and 101 to 500 nM.
Consider `O=C(NCCC1(O)CCCC1)c1cn(C2COC2)c2cccc(Cl)c12` [Compound 45, 4-chloro-N-(2-(1-hydroxycyclopentyl)ethyl)-1-(oxetan-3-yl)-1H-indole-3-carboxamide], for which the IC50 in experiment [1] (THP-1 cells, LPS primed, 0.8 mM BzATP, mature IL-1β by sandwich ELISA, read-out: hTHP-1/IL-ib IC50) is over 1000 nM; in experiment [2] (setting [3]) it was over 1000 nM.
As for `CN1CCOC(Cn2cc(C(=O)NCC3CCC(F)(F)CC3)c3c(Cl)cccc32)C1` (centres unmarked) [Compound 183, 4-chloro-N-((4,4-difluorocyclohexyl)methyl)-1-((4-methylmorpholin-2-yl)methyl)-1H-indole-3-carboxamide], the IC50 in experiment [1] and in experiment [2] was 10 to 100 nM throughout.
For the compound `O=C(NCC1(O)CCC(F)(F)CC1)c1cn(C2CCCO2)c2cccc(Cl)c12` (centres unmarked) [Compound 98, 4-chloro-N-((4,4-difluoro-1-hydroxycyclohexyl)methyl)-1-(tetrahydrofuran-2-yl)-1H-indole-3-carboxamide], the IC50 in experiment [1] and in experiment [2] was 101 to 500 nM throughout.
Take `CC(C)N(C)C(=O)Cn1cc(C(=O)NCC2CCC(F)(F)CC2)c2c(Cl)cccc21` [Compound 203, 4-Chloro-1-[(isopropyl-methyl-carbamoyl)-methyl]-1H-indole-3-carboxylic acid (4,4-difluoro-cyclohexylmethyl)-amide]: the IC50 in experiment [1] was 101 to 500 nM; in experiment [2], 10 to 100 nM.
In the case of `O=C(NCC1(O)CCCC(F)(F)C1)c1cn(C[C@H]2CCCO2)c2cccc(Cl)c12` (stereo partly drawn) [Compound 133, 4-chloro-N-((3,3-difluoro-1-hydroxycyclohexyl)methyl)-1-(((R)-tetrahydrofuran-2-yl)methyl)-1H-indole-3-carboxamide], the IC50 in experiment [1] and in experiment [2] was 10 to 100 nM each time.
For the compound `C[C@@H]1CCC[C@](O)(CNC(=O)c2cn(C3COC3)c3cccc(Cl)c23)C1` [Compound 93, 4-chloro-N-(((1R,3R)-1-hydroxy-3-methylcyclohexyl)methyl)-1-(oxetan-3-yl)-1H-indole-3-carboxamide], the IC50 in experiment [1] was 10 to 100 nM; in experiment [2] (setting [3]) it was under 10 nM.
`COCCn1cc(C(=O)NC[C@]2(O)CCCC(F)(F)C2)c2c(Cl)cccc21` [Compound 20, (S)-4-chloro-N-((3,3-difluoro-1-hydroxycyclohexyl)methyl)-1-(2-methoxyethyl)-1H-indole-3-carboxamide]: the IC50 in experiment [1] is 101 to 500 nM; in experiment [2] it was 10 to 100 nM.
Consider `O=C(NCC1CCC(F)(F)CC1)c1cn(C2CCNC2)c2cccc(Cl)c12` (centres unmarked) [Compound 121, 4-chloro-N-((4,4-difluorocyclohexyl)methyl)-1-(pyrrolidin-3-yl)-1H-indole-3-carboxamide], for which the IC50 in experiment [1] and in experiment [2] was 10 to 100 nM each time.
For `O=C(NCC1CCC(F)(F)CC1)c1cn(CC(=O)N2CCCC2)c2cccc(Cl)c12` [Compound 185, 4-Chloro-1-(2-oxo-2-pyrrolidin-1-yl-ethyl)-1H-indole-3-carboxylic acid (4,4-difluoro-cyclohexylmethyl)-amide], the IC50 in experiment [1] and in experiment [2] was 10 to 100 nM throughout.
With `COCCn1cc(C(=O)NCC2CCC(F)(F)CC2)c2c(C(F)(F)F)cccc21` [Compound 199], the IC50 in experiment [1] and in experiment [2] was 101 to 500 nM each time.
With `O=C1NC[C@H](Cn2cc(C(=O)NCC3CCC(F)(F)CC3)c3c(Cl)cccc32)O1` [Compound 126, (R)-4-chloro-N-((4,4-difluorocyclohexyl)methyl)-1-((2-oxooxazolidin-5-yl)methyl)-1H-indole-3-carboxamide], the IC50 in experiment [1] and in experiment [2] was 10 to 100 nM each time.
As for `O=C(NCC1CCCC(C(F)(F)F)C1)c1cn(C2CCOC2)c2cccc(Cl)c12` (centres unmarked) [Compound 112, 4-Chloro-1-(tetrahydro-furan-3-yl)-1H-indole-3-carboxylic acid (3-trifluoromethyl-cyclohexylmethyl)-amide], the values for the IC50 in experiment [1] and in experiment [2] were 101 to 500 nM and 10 to 100 nM, respectively.
Regarding `O=C(NCC1CCC(F)(F)CC1)c1cn(CC2CCO2)c2cccc(Cl)c12` (centres unmarked) [Compound 116, 4-chloro-N-((4,4-difluorocyclohexyl)methyl)-1-(oxetan-2-ylmethyl)-1H-indole-3-carboxamide], the IC50 in experiment [1] and in experiment [2] was 10 to 100 nM each time.
As for `O=C(NC(C1CCCC1)C(F)(F)F)c1cn(C2COC2)c2cccc(Cl)c12` (centres unmarked) [Compound 42, 4-chloro-N-(1-cyclopentyl-2,2,2-trifluoroethyl)-1-(oxetan-3-yl)-1H-indole-3-carboxamide], in experiment [2] (setting [3]), the IC50 is over 1000 nM.
In the case of `O=C(NCC1CCC(F)(F)CC1)c1cn(C2CCCO2)c2cccc(Cl)c12` (centres unmarked) [Compound 99, 4-chloro-N-((4,4-difluorocyclohexyl)methyl)-1-(tetrahydrofuran-2-yl)-1H-indole-3-carboxamide], the IC50 in experiment [2] was 101 to 500 nM.
Same read-out and setting: the result for `CC(C)(CNC(=O)c1cn(C2CCOC2)c2cccc(Cl)c12)C1CCCC1` (centres unmarked) [Compound 103, 4-Chloro-1-(tetrahydro-furan-3-yl)-1H-indole-3-carboxylic acid (2-cyclopentyl-2-methyl-propyl)-amide] reads 101 to 500 nM; that for `COCCn1cc(C(=O)NC[C@]2(O)CCC[C@H](C)C2)c2c(Cl)cccc21` [Compound 14, 4-Chloro-1-(2-methoxy-ethyl)-1H-indole-3-carboxylic acid ((1S,3S)-1-hydroxy-3-methyl-cyclohexylmethyl)-amide], 10 to 100 nM.
